Article PMC8397297 (ACS Chemical Neuroscience, 2021)
Entries after “also recorded” stand apart in the source; their conditions may differ.

What was measured:
[1] = target: T1, mGAT1 (Mus musculus, UniProt P31648); experiment: competitive MS binding assay with NO711 as unlabeled marker (LC-ESI-MS/MS); settings: for remaining NO711 binding mGAT1: in the presence of 100 μM inhibitor
T1 construct: expressed in transfected cells; host or cells: HEK-293
Method in brief: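 Competitive MS binding with unlabeled NO711 as marker, quantified by LC–ESI-MS/MS. Compounds screened at 100 μM for inhibition of marker binding.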

[2] = system: oxaliplatin-treated mice; experiment: oxaliplatin-induced peripheral neuropathy, tactile allodynia (von Frey test); type: in vivo, mouse
Procedure: (§1) Before the in vivo tests, the test compounds were suspended in 1% Tween 80 (Baxter, Poland). The compounds were then administered intraperitoneally. […] The test compounds were administered only once daily on days 1 and 7 of oxaliplatin- or paclitaxel-induced neuropathy. In STZ-treated mice, test compounds were administered 21 days after STZ injection. Control mice used in oxaliplatin and paclitaxel NP models were injected with an appropriate amount of vehicle (0.9% saline). Oxaliplatin was purchased from Activate Scientific GmbH (Germany). Paclitaxel and STZ were purchased from Sigma-Aldrich (Poland).
(§2) For pain studies, oxaliplatin was dissolved in 5% glucose solution (Polfa Kutno, Poland). The dose of oxaliplatin used to induce peripheral neuropathy (10 mg/kg, intraperitoneal injection) was chosen on the basis of previous research[63],[64] and available literature data.[65]
The ability of the test compounds to attenuate tactile allodynia caused by oxaliplatin, paclitaxel, and STZ was assessed using the von Frey test. For this purpose, 3 h after oxaliplatin or paclitaxel and 21 days after STZ injection, the predrug paw withdrawal threshold was measured for each mouse. Then, the test compounds were administered, and 1 h later, the postdrug paw withdrawal threshold was collected for each animal. This part of the experiment aimed to establish the effect of treatment on early phase (acute) pain hypersensitivity induced by cytotoxic drugs. Additionally, in the oxaliplatin model and the paclitaxel model, to assess the effect of test compounds on late phase tactile allodynia, 7 days later, measurements of the predrug and postdrug paw withdrawal thresholds were made in a similar manner to the measurements performed during early phase neuropathy. At this stage of the experiment, there was no additional oxaliplatin/paclitaxel administration.
An electronic von Frey unit (Bioseb, France) was used to assess the mechanical nociceptive threshold (tactile allodynia) in mice. This device has a single flexible filament that applies increasing force (from 0 to 10 g) against the plantar surface of the hind paw of each mouse. In the von Frey test, the paw withdrawal response of the animals automatically turns off the stimulus, and the mechanical pressure that evokes this response is recorded. On the day of the experiment, the mice were placed individually in test compartments with a wire mesh bottom and left there for 1 h of habituation. Subsequently, to obtain baseline values, each mouse was tested 3 times alternately in each hind paw. Then, the test compounds were administered, and 1 h later, 3 additional measurements were taken and averaged to obtain the mean postdrug values for each mouse.[69]

[3] = target: T1, mGAT1; experiment: [3H]GABA uptake assay in HEK-293 cells stably expressing mGAT1; type: cell-based; settings: for IC50: [3H]GABA uptake, read-out: pIC50 ± SEM mGAT1 (converted)
[4] = target: T2, mGAT2 (Mus musculus, UniProt P31651); experiment: [3H]GABA uptake assay in HEK-293 cells stably expressing mGAT2; type: cell-based; settings: [3H]GABA uptake; read-out: pIC50 ± SEM mGAT2 (converted)
T2 construct: expressed in transfected cells; host or cells: HEK-293
T2 sequence (P31651 1-614): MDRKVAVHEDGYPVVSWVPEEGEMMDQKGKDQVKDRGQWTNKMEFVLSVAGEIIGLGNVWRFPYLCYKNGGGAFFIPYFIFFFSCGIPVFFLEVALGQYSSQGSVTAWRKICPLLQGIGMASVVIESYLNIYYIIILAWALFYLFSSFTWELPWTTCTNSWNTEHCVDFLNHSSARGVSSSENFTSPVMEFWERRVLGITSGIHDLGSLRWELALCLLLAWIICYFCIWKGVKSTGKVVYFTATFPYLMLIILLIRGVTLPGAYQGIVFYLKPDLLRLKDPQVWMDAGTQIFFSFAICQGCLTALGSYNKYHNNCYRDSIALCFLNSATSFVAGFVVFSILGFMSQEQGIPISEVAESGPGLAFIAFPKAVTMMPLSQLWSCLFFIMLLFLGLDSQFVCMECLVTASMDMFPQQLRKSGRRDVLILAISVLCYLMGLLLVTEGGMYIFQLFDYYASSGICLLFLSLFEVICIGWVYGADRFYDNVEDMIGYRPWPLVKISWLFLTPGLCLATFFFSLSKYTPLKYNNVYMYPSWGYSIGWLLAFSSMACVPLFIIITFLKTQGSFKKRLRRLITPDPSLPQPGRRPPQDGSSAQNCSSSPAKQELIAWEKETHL

[5] = target: T3, mGAT3 (Mus musculus, UniProt P31649); experiment: [3H]GABA uptake assay in HEK-293 cells stably expressing mGAT3; type: cell-based; settings: [3H]GABA uptake; read-out: pIC50 ± SEM mGAT3 (converted)
T3 construct: expressed in transfected cells; host or cells: HEK-293
T3 sequence (P31649 1-602): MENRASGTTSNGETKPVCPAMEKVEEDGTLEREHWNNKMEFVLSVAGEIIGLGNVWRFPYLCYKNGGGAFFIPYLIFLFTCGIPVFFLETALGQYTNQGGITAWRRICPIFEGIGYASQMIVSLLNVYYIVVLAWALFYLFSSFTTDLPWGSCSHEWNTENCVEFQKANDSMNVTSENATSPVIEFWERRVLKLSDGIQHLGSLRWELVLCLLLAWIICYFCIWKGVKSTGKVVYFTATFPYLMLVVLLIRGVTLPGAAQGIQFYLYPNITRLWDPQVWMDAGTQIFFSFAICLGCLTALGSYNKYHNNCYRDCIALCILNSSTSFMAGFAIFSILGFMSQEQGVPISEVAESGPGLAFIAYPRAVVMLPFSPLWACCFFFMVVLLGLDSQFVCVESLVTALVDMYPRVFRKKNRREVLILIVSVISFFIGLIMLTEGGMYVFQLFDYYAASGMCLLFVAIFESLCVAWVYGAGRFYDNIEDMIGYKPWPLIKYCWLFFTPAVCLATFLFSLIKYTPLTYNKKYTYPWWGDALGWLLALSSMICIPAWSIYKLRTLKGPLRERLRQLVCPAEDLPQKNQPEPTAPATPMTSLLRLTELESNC

[6] = system: oxaliplatin-treated mice; experiment: oxaliplatin-induced peripheral neuropathy, cold hyperalgesia (cold plate test); type: in vivo, mouse
Procedure: as §1, §2
A cold plate apparatus (hot/cold plate, Bioseb, France) set at 2.5 °C was used to assess the effect of treatment on cold hyperalgesia in oxaliplatin-treated mice. The cold plate test was conducted immediately after the von Frey test. Three hours after oxaliplatin administration, the animals were placed on a cold plate apparatus, and predrug latencies to pain reaction (i.e., lifting, biting, shaking of hind paws, jumping, movement deficits, or writhing response) were collected. Finally, the test compounds were injected, and 1 h later, the postdrug latencies to pain reaction were measured.

[7] = early (acute) phase of oxaliplatin-induced neuropathy, i.p., 50a and 56a at both doses (10 and 30 mg/kg)
[8] = early phase of oxaliplatin-induced neuropathy, i.p.

Row | Structure (SMILES) | remaining NO711 binding mGAT1 [1] | effect on mechanical nociceptive threshold (tactile allodynia), von Frey test [2, 7] | remaining [3H]GABA uptake mGAT1 ([3]; in the presence of 100 μM inhibitor) | IC50 [4] [µM] | IC50 [5] [µM] | effect on cold hyperalgesia, cold plate test [6, 8] | Ki ([1]; MS binding assay, read-out: pKi ± SEM mGAT1 (converted)) [µM] | IC50 [3] [µM] | effect on mechanical nociceptive threshold (tactile allodynia), von Frey test ([2]; late phase (7 days after oxaliplatin), 10 mg/kg i.p., 10 mg/kg) | effect on cold hyperalgesia, cold plate test ([6]; early (acute) phase of oxaliplatin-induced neuropathy, 30 mg/kg i.p., 30 mg/kg)
1 | Cc1ccc(CNC(=O)[C@@H](C[C@@H](C)O)N(C)CCC=C2c3ccccc3CCc3ccccc32)cc1 (relative stereo) [Compound 2RS,4RS-39c, 2-((3-(10,11-Dihydro-5H-dibenzo[a,d][7]annulen-5-ylidene)propyl)(methyl)amino)-4-hydroxy-N-(4-methylbenzyl)pentanamide] | 100 μM: 69% | not effective | 100 μM: 52% | 20.4 | 6.61 | not effective |  |  |  | 
2 | CN(CCON=C(c1ccccc1)c1ccccc1)C(CCN)C(=O)NCc1ccccc1Cl (stereo not shown) [Compound 50a, 4-Amino-N-[(2-chlorophenyl)methyl]-2-[(2-{[(diphenylmethylidene)amino]oxy}ethyl)(methyl)amino]butanamide] |  | significantly elevated the pain threshold for mechanical stimulation; also recorded: showed antiallodynic properties |  | 3.72 | 8.51 | not effective | 33.1 | 20 |  | 
3 | CN(CCC=C1c2ccccc2CCc2ccccc21)C(CO)C(=O)NCc1ccccc1 (stereo not shown) [Compound 56a, N-Benzyl-2-((3-(10,11-dihydro-5H-dibenzo[a,d][7]annulen-5-ylidene)propyl)(methyl)amino)-3-hydroxypropanamide] | 100 μM: 68% | reduced tactile allodynia; also recorded: showed antiallodynic properties |  | 27.5 | 22.9 |  |  | 21.4 | showed antiallodynic properties in the acute and late phases | reduced cold hyperalgesia in the acute phase
